Experimental data published in patent US6465482B2, “Arylpiperazinyl-cyclohexyl indole derivatives for the treatment of depression” (Wyeth, priority 1999, dated 2002).
Structures can show the parent of a compound that is named as a salt.

System: not given
Experiment: not given
Settings: not given

| melting point | SMILES |
| --- | --- |
| 285.5 to 288 °C | Cn1cc([C@H]2CC[C@@H](N3CCN(c4cccc5[nH]ccc45)CC3)CC2)c2cc(C#N)ccc21 (as salt: HCl) (hydrate or solvate) [Example 12a, 3-{(1,4-cis)-4-[4-(1H-indol-4-yl)-piperazin-1-yl]-cyclohexyl}-1-methyl-1H-indole-5-carbonitrile] |
| 253 to 254 °C | Cn1ccc2c(N3CCN([C@H]4CC[C@@H](c5cn(C)c6cc(F)ccc65)CC4)CC3)cccc21 (as salt: HCl) (hydrate or solvate) [Example 11, 6-Fluoro-1-methyl-3-{cis-4-[4-(1-methyl-1H-indol-4-yl)-1-piperazinyl]cyclohexyl}-1H-indole] |
| 105 to 110 °C | COc1cc(N2CCN([C@H]3CC[C@@H](c4cn(C)c5ncccc54)CC3)CC2)c2ncccc2c1 [Example 79, 6-Methoxy-8-{cis-4-[4-(1-methyl-1H-pyrrolo[2,3-b]pyridin-3-yl)cyclohexyl]-1-piperazinyl}quinoline] |
| 172 to 174 °C | Cn1cc([C@H]2CC[C@@H](N3CCN(c4cc(C=O)cc5cccnc45)CC3)CC2)c2cc(C#N)ccc21 (as salt: oxalate) [Example 71, 8-[4-[(cis)-4-(5-Cyano-1-methyl-1H-indole-3-yl)-cyclohexyl]-piperazin-1-yl]-6-quinolinecarbaldehyde] |
| 190 to 191.5 °C | COc1cc(N2CCN([C@H]3CC[C@@H](c4cn(C)c5ccc(C#N)cc54)CC3)CC2)c2ncc(C)cc2c1 [Example 51b, (cis)-3-{4-[4-(6-Methoxy-3-methylquinolin-8-yl)piperazin-1-yl]cyclohexyl}-1-methyl-1H-indole-5-carbonitrile] |
| 170 to 172 °C | COc1ccccc1N1CCN([C@H]2CC[C@@H](c3c[nH]c4ccc(F)cc43)CC2)CC1 (as salt: HCl) [Example 18, 5-Fluoro-3-{(cis)-4-[4-(2-methoxy-phenyl)-piperazin-1-yl]-cyclohexyl}-1H-indole] |
| > 310 °C | Cc1[nH]c2ccccc2c1[C@H]1CC[C@H](N2CCN(c3cccc4[nH]ccc34)CC2)CC1 (as salt: HCl) [Example 9b, 3-[trans-4-[4-(1H-Indol-4-yl)-1-piperazinyl]cyclohexyl]-2-methyl-1H-indole] |
| 230 to 233 °C | COc1cc(N2CCN([C@H]3CC[C@H](c4cn(C)c5ccc(C#N)cc54)CC3)CC2)c2nccnc2c1 [Example 65b, (trans)-3-{4-[4-(7-Methoxyquinoxalin-5-yl)piperazin-1-yl]cyclohexyl}-1-methyl-1H-indole-5-carbonitrile] |
| 200 to 203 °C | COc1ccc2cc(N3CCN(C4CCC(c5c[nH]c6ccc(F)cc56)CC4)CC3)ccc2c1 (stereo not shown) (as salt: oxalate) [Example 69, 5-Fluoro-3-{4-[4-(6-Methoxy-naphthalen-2-yl)-piperazin-1-yl]-cyclohexyl}-1H-indole] |

| SMILES | melting point |
| --- | --- |
| Cn1cc([C@H]2CC[C@@H](N3CCN(c4cc(F)cc5c4OCC5)CC3)CC2)c2cc(C#N)ccc21 (as salt: HCl) [Example 33c, 3-{(1,4-cis)-4-[4-(5-Fluoro-2,3-dihydro-benzofuran-7-yl)-piperazin-1-yl]-cyclohexyl}-1-methyl-1H-indole-5-carbonitrile] | 282 to 284 °C |
| N#Cc1ccc2[nH]cc([C@H]3CC[C@@H](N4CCN(c5cccc6c5OCCO6)CC4)CC3)c2c1 (as salt: HCl) [Example 26a, 3-{(1,4-cis)-4-[4-(2,3-Dihydro-benzo[1,4]dioxin-5-yl)-piperazin-1-yl]-cyclohexyl}-1H-indole-5-carbonitrile] | 300 °C |
| Fc1ccc2[nH]cc([C@H]3CC[C@@H](N4CCN(c5cccc6[nH]ccc56)CC4)CC3)c2c1 (as salt: HCl) [Example 3a, 5-Fluoro-3-[cis-4-[4-(1H-indol-4-yl)-1-piperazinyl]cyclohexyl]-1H-indole] | 215 to 217 °C |
| Fc1ccc2c(c1)[nH]cc2[C@H]1CC[C@H](N2CCN(c3cccc4c3OCCO4)CC2)CC1 (as salt: HCl) [Example 25b, 3-{(1,4-trans)-4-[4-(2,3-Dihydro-benzo[1,4]dioxin-5-yl)-piperazin-1-yl]-cyclohexyl}-6-fluoro-1H-indole] | 309 to 310 °C |
| Cn1cc([C@H]2CC[C@@H](N3CCN(c4cccc5cccnc45)CC3)CC2)c2cc(C#N)ccc21 (as salt: HCl) [Example 30, 1-Methyl-3-[(1,4-cis)-4-(4-quinolin-8-yl-piperazin-1-yl)-cyclohexyl]-1H-indole-5-carbonitrile] | 288 to 289 °C |

Biological target: T1, human 5-HT1A receptor subtype (Homo sapiens, UniProt P08908)
T1 construct: expressed in transfected cells
T1 sequence (P08908 1-422): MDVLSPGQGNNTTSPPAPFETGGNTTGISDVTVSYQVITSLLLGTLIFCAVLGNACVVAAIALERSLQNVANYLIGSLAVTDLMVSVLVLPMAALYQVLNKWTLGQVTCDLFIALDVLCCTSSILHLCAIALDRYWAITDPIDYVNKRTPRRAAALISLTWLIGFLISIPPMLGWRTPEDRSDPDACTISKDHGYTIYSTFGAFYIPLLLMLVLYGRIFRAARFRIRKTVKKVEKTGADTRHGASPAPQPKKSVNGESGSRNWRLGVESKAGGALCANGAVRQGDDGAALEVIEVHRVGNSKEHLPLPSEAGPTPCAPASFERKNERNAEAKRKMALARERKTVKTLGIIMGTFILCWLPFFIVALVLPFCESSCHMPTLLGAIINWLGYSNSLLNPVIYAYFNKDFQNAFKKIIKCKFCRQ
Experiment: 5-HT1A receptor binding, [3H]8-OH-DPAT, CHO cell membranes
Settings: [3H]8-OH-DPAT 1.5 nM
Description: The PCR cloning of the human 5-HT1A receptor subtype from a human genomic library has been described previously Chanda et al., Mol. Pharmacol., 43:516 (1993). A stable Chinese hamster ovary cell line expressing the human 5-HT1A receptor subtype (5-HT1A.CH2O cells) was employed throughout this study. Cells were maintained in DMEM supplemented with 10% fetal calf serum, non-essential amino acids and penicillin/streptomycin.
Cells were grown to 95-100% confluency as a monolayer before membranes were harvested for binding studies. Cells were gently scraped from the culture plates, transferred to centrifuge tubes, and washed twice by centrifugation (2000 rpm for 10 min., 4° C.) in buffer (50 mM Tris; pH 7.5). The resulting pellets were aliquoted and placed at −80° C. On the day of assay, the cells were thawed on ice, and resuspended in buffer. Studies were conducted using [^3H]8-OH-DPAT as the radioligand. The binding assay was performed in 96 well microtiter plates in a final total volume of 250 μL of buffer. Competition experiments were performed by using 7 concentrations of unlabelled drug and a final ligand concentration of 1.5 nM. Non-specific binding was determined in the presence of 10 μM 5HT. Saturation analysis was conducted by using [^3H]8-OH-DPAT at concentaritions ranging from 0.3-30 nm Following a 30 minute incubation at room temperature, the reaction was terminated by the addition of ice cold buffer and rapid filtration using a M-96 Brandel Cell Harvester (Gaithersburg, Md.) through a GF/B filter presoaked for 30 minutes in 0.5% polyethylenenimine.

| SMILES | Ki |
| --- | --- |
| CCCn1cc([C@H]2CC[C@@H](N3CCN(c4cccc5[nH]ccc45)CC3)CC2)c2cc(C#N)ccc21 [Example 14a, 3-{(1,4-cis)-4-[4-(1H-Indol-4-yl)-piperazin-1-yl]-cyclohexyl}-1-propyl-1H-indole-5-carbonitrile] | 820 nM |
| CCn1cc([C@H]2CC[C@H](N3CCN(c4cccc5[nH]ccc45)CC3)CC2)c2cc(C#N)ccc21 [Example 13b, 1-Ethyl-3-{(1,4-trans)-4-[4-(1H-indol-4-yl)-piperazin-1-yl]-cyclohexyl}-1H-indole-5-carbonitrile] | 827 nM |
| CCn1cc([C@H]2CC[C@@H](N3CCN(c4cccc5[nH]ccc45)CC3)CC2)c2cc(C#N)ccc21 [Example 13a, 1-Ethyl-3-{(1,4-cis)-4-[4-(1H-indol-4-yl)-piperazin-1-yl]-cyclohexyl}-1H-indole-5-carbonitrile] | 563 nM |
| Fc1cc2c(c(N3CCN([C@H]4CC[C@H](c5c[nH]c6ccc(F)cc65)CC4)CC3)c1)OCCC2 [Example 31b, 5-Fluoro-3-{(1,4-trans)-4-[4-(6-fluoro-chroman-8-yl)-piperazin-1-yl]-cyclohexyl}-1H-indole] | 32.4 nM |
| Fc1ccc2[nH]cc([C@H]3CC[C@@H](N4CCN(c5cccc6cccnc56)CC4)CC3)c2c1 [Example 27a, 8-{4-[(1,4-cis)-4-(5-Fluoro-1H-indol-3-yl)-cyclohexyl]-piperazin-1-yl}-quinoline] | 69.7 nM |
| Fc1ccc2[nH]cc([C@H]3CC[C@H](N4CCN(c5cccc6cccnc56)CC4)CC3)c2c1 [Example 27b, 8-{4-[(1,4-trans)-4-(5-Fluoro-1H-indol-3-yl)-cyclohexyl]-piperazin-1-yl}-quinoline] | 6.54 nM |
| Fc1cccc2[nH]cc([C@H]3CC[C@@H](N4CCN(c5cccc6c5OCCO6)CC4)CC3)c12 [Example 23a, 3-{(1,4-cis)-4-[4-(2,3-Dihydro-benzo[1,4]dioxin-5-yl)-piperazin-1-yl]-cyclohexyl}-4-fluoro-1H-indole] | 103 nM |
| COc1ccc2[nH]cc([C@H]3CC[C@@H](N4CCN(c5ccccc5OC)CC4)CC3)c2c1 [Example 20a, 5-Methoxy-3-{(1,4-cis)-4-[4-(2-methoxy-phenyl)-piperazin-1-yl]-cyclohexyl}-1H-indole] | 631 nM |
| Fc1cc2c(c(N3CCN([C@H]4CC[C@H](c5c[nH]c6ccc(F)cc65)CC4)CC3)c1)OCC2 [Example 32b, 5-Fluoro-3-{(1,4-trans)-4-[4-(5-fluoro-2,3-dihydro-benzofuran-7-yl)-piperazin-1-yl]-cyclohexyl}-1H-indole] | 49.1 nM |
| COc1ccccc1N1CCN([C@H]2CC[C@@H](c3c[nH]c4ncccc43)CC2)CC1 [Example 21, 3-{(1,4-cis)-4-[4-(2-Methoxy-phenyl)-piperazin-1-yl]-cyclohexyl}-1H-pyrrolo[2,3-b]pyridine] | 110 nM |
| Fc1cccc2[nH]cc([C@H]3CC[C@H](N4CCN(c5cccc6c5OCCO6)CC4)CC3)c12 [Example 23b, 3-{(1,4-trans)-4-[4-(2,3-Dihydro-benzo[1,4]dioxin-5-yl)-piperazin-1-yl]-cyclohexyl}-4-fluoro-1H-indole] | 14.9 nM |

Same assay, conditions: concentration not given

| 5-HT1A, value given as % | SMILES |
| --- | --- |
| 0% | Cn1ccc2c(N3CCN([C@H]4CC[C@@H](c5cn(C)c6cc(F)ccc65)CC4)CC3)cccc21 [Example 11, 6-Fluoro-1-methyl-3-{cis-4-[4-(1-methyl-1H-indol-4-yl)-1-piperazinyl]cyclohexyl}-1H-indole] |
| 78.7% | Brc1ccc2[nH]cc([C@H]3CC[C@H](N4CCN(c5cccc6[nH]ccc56)CC4)CC3)c2c1 [Example 5b, 5-Bromo-3-[trans-4-[4-(1H-indol-4-yl)-1-piperazinyl]cyclohexyl]-1H-indole] |
| 0% | Brc1ccc2[nH]cc([C@H]3CC[C@@H](N4CCN(c5cccc6[nH]ccc56)CC4)CC3)c2c1 [Example 5a, 5-Bromo-3-[cis-4-[4-(1H-indol-4-yl)-1-piperazinyl]cyclohexyl]-1H-indole] |
